In ChEMBL document CHEMBL3507680, “University of Dundee, Gates Library screen for HepG2 cell viability”:

Test: Human HepG2 cell viability assay in 384 well format
Type: toxicity, cell-based
Design: dose 125 nL, time 70.5 hour; concentration not given beside the values
Conditions: HepG2 cells, read-out: Inhibition

Compound	cytotoxicity at 70.5 h
Cc1cc(-c2cc(-c3cc(CC(=O)O)cs3)nc(N)c2C#N)oc1C	-12.1%
CCCn1cc(NC(=O)NCC2CCS(=O)(=O)C2)nn1 (configuration not stated)	-9.78%
Cn1cc(N2CC3(CCN(CC4CCC4)CC3)OCC2=O)cn1	-7.64%
CNc1nc(C)c(C(=O)N2CCCCC2CCc2ccc(O)cc2)s1 (configuration not stated)	-8.49%
Cc1nsc(N2CCN(C(=O)Nc3cccc(C#N)c3)CC2)n1	-0.0722%
Cc1cnn(CCC(=O)N2CCN(C(=O)C3CC3)[C@@H]3CS(=O)(=O)C[C@@H]32)c1	-5.71%
c1cc(COc2ccc(CNC3CCc4ncnn4C3)cc2)ccn1 (configuration not stated)	-2.99%
Cc1csc(N2CCCN(C(=O)c3csc(C)n3)CC2)n1	-10.6%
Cc1nnn2c1COC(CNC(=O)c1cccn1C)C2 (configuration not stated)	-14.1%
Cc1cccc(CN(Cc2ccccc2)Cc2nccs2)n1	-11.1%
COCCNC(=O)NCc1ccc(OC(C)C)c(F)c1	-10.4%
O=C(NC[C@H]1OC[C@@H](NC2CCC(F)(F)CC2)[C@@H]1O)N1CCOCC1	-6.74%
Cc1noc(C)c1CC(=O)N1CCc2sccc2C1	-4.18%
COCCN1C(=O)[C@]2(CC[C@@H]3CN(Cc4ccccc4F)C[C@@H]32)N=C1C	-9.72%
Cc1noc(C)c1C(=O)N1CCCN(C)c2ccc(Cl)cc21	-3.33%
CC(C)NS(=O)(=O)c1cc(C(=O)O)cc(-c2ccc(CN(C)C)cc2)c1	16.9%
CN(CC1CC1)C(=O)c1cc2c(c(S(N)(=O)=O)c1)CCC2	2.25%
CNC(=O)CN1CCOCC2(C1)CN(C(=O)CC(C)C)CCO2 (configuration not stated)	-4.88%
Cc1cccc(-c2nc3cc(S(=O)(=O)N4CCCC4)ccc3n2C)n1	-10.3%

Compound	cytotoxicity at 70.5 h
OCC1CCCN1c1cc(NCc2cccc3cccnc23)ncn1 (configuration not stated)	3.27%
O=C(c1cc(COc2ccc3c(c2)OCO3)[nH]n1)N1CCCO1	-2.52%
Cc1ccn(-c2ccnc(N3CCN(c4ncccn4)CC3)n2)n1	-9.69%
CCS(=O)(=O)CC(=O)NC(C)c1ccc(F)cc1F (configuration not stated)	-6.32%
COc1ccc(-c2ccc(C(=O)N3CCC[C@@H]3CO)o2)cc1	-13.9%
CCC1CN(CC(=O)NCCN2CCCCCC2)c2ccccc2S1 (configuration not stated)	-1.59%
O=C(CC1Cn2ncnc2NC1=O)Nc1ccccc1 (configuration not stated)	-8.16%
CCC(NC(=O)C1CC1)c1ccccc1OCC(=O)N1CCCC1 (configuration not stated)	-6.4%
CCN1CC2(CC1=O)CN(C(C)=O)CCN(S(=O)(=O)CC)C2 (configuration not stated)	-2.5%
CCn1ncc2c1C(COC)CN(Cc1ccc(OC)cc1)C2 (configuration not stated)	-5.26%
CN1CCN(S(=O)(=O)NCC2COc3ccccc3C2)CC1 (configuration not stated)	-3.52%
CNC(=O)N1CCCCC1CCNS(C)(=O)=O (configuration not stated)	-13.3%
Cc1cccn2cc(CN3CCCC(c4ccn[nH]4)C3)nc12 (configuration not stated)	0.654%
CC(C)CN(C)c1ccc(C(=O)N2CCCC2c2cnn(C)c2)cn1 (configuration not stated)	21.8%
CN(CCC(=O)NC1CC1)Cc1ccc(Cl)s1	-7.03%
COc1cccc(C2SCC(=O)Nc3ccsc32)c1OC (configuration not stated)	1.7%
COc1nc(C)c(C(=O)N2CCc3[nH]nc(Cc4ccccc4)c3C2)s1	-1.57%
NCCC(=O)N1CCC2(CC1)CN(C(=O)Cc1ccc(Cl)cc1)CCO2	-14.3%
CCN1CCN(C)C(=O)C12CCN(Cc1csc(C)n1)CC2	-8.47%

Compound	cytotoxicity at 70.5 h
CCC(C)(O)CNc1ccc(S(=O)(=O)C(F)F)cc1 (configuration not stated)	-5.3%
CCN(Cc1ccco1)C(=O)C1=NN(c2ccccc2)C(=O)CN1	17.6%
O=C1c2c(O)cc(O)cc2O[C@@H](c2ccc(O)cc2)[C@@H]1O	-7.81%
Cc1ncc(CN2CCCC(c3cc(C(F)(F)F)[nH]n3)C2)s1 (configuration not stated)	-1.49%
CS(=O)(=O)NC[C@]12COC[C@H]1CN(C(=O)C1CC=CC1)C2	-3.37%
COCCN1C[C@H]2CCN(C(C)=O)CC[C@H]2S1(=O)=O	0.94%
Cc1nc(CN2CCCN(CCOc3cccc(C#N)c3)CC2)no1	38.4%
Cc1cc(C)cc(OCC(=O)N2CCCC2)c1	-21.3%
Cc1nnc(CSCc2ccc(OCC(F)(F)F)nc2)o1	-4.42%
COc1ccc(Cn2cc(C(=O)N(C)CCN(C)C)nn2)cc1	-15%
Nc1ccncc1-n1cc(CCO)cn1	1.11%
CN(C)C(=O)[C@@H]1C[C@@H]2CCN(C3CCOCC3)C[C@H]2O1	-4.53%
CCC(C)S(=O)(=O)N1CCc2nc(C3CCNCC3)ncc2C1 (configuration not stated)	-0.105%
CC(O)C(=O)N1CCC(c2nccn2Cc2cscn2)CC1 (configuration not stated)	23.7%
Cc1cccc(C)c1OCCCN1CCN(CC2CCCO2)CC1 (configuration not stated)	18.9%
Cn1c(C(F)(F)F)nn(CCNC(=O)Nc2ccccc2F)c1=O	-7.97%
CCOC(=O)N1CCC2(CCNC2)C1 (configuration not stated)	-5.56%
O=C1CCCC2(CCN(C(=O)c3ccccn3)CC2)N1	-1.46%
COCCCC1(CO)CCCN(CCS(C)(=O)=O)C1 (configuration not stated)	-6%
